Test results published in patent US11390900B2, “Antimicrobial cartridges and processes for multiplexed antimicrobial susceptibility testing” (priority 2018, dated 2022).
Values after ≈ are worked out from the molar mass of the structure shown. Where two headings read alike, the source gives them in different places.

Legend:
patient sample microbes [1] = test: AST MIC results for antimicrobial panel 1 (384-well panel from Master Plate vs 96-well panel); assay type: cell-based; conditions: for MICs obtained from panel made from Master Plate: antimicrobial panel 1, 384 well patient cartridge; for MICs obtained from 96-well Antibiotic Panel: antimicrobial panel 1, standard 96 well AST assay plate
Description: (§1) An assay setup comprises preparation of patient (target) cartridge by dispensing antimicrobials were from the master cartridge or intermediate serial dilution cartridges into one or more 384 reservoir patient cartridge, each antimicrobial in about 7 serial dilutions in triplicate, and covering the dynamic range of each antimicrobial that is known to be effective and therefore should be reported. The dilution range included the expected minimum inhibitory concentration (MIC) for each antimicrobial. But most importantly, dilution ranges, that is, antimicrobial concentrations beyond the range known to be effective are included in the patient cartridge as per the present invention.
(§2) The remaining reservoirs of the 384 well patient cartridge are utilized for setting up test controls: a no-antimicrobial control (negative control) was included for each antimicrobial compound; and a positive control was included for each antimicrobial set, where a microorganism that is not susceptible to the antimicrobial was added to the well. Each control set was also dispensed at least in duplicate per 384 well cartridge. Additional test controls may be included as deemed necessary by one of skill in the art. Equal amount of a patient sample was dispensed to each of the wells in the cartridge, except in the wells designated for no-sample control, if included. The patient cartridge was ready for determination of susceptibility of microbes from the patient sample to the twelve antimicrobials at the range of concentrations applied, simultaneously. Multiple such plates can be set up in parallel for testing samples from multiple patients, each patient sample per plate. An AST assay was performed on the prepared patient cartridges.
(§3) First, three master plates are loaded by the user onto chilled plate holders (set to 4° C.). These consist of one Broad Spectrum, one Gram-Positive and one Gram-Negative antibiotic plate. Next the bulk reagents and pipette tips are loaded on tube rack. Master and bulk reagent pipette tips and sample dilution tray are reloaded every 12 samples. For every set of tests, up to four Patient Samples in tubes and up to four 384-well Target Plates (Patient plate) are loaded.
(§4) Antibiotics are transferred from Broad Spectrum Master Plate to Target Plate(s). Antibiotics are “stamped” according to FIG. 10A-B. The inoculator tips should be placed back in the same position of the Broad Spectrum Tip Box for use on subsequent target plates, but should only be used for same antibiotics to avoid cross contamination.
(§5) Antimicrobials are transferred from Gram-Positive OR Gram-Negative Master Plate to Target Plate(s) and the antibiotics are “stamped” according to FIG. 11A-B. The inoculator should place tips back in the same position of the correct tip box for use on subsequent target plates. Good care is taken such that any cross contamination is prevented.
(§6) Using new tips from the Sample Tip Box, 50 μL of diluted patient sample are transferred into Target Plate according to Table Four, this is done with a “jet dispense” to avoid cross contamination. After the Patient Sample has been transferred to each well on the Target Plate, the tips should be disposed of to avoid cross contamination. The above steps are repeated for each additional Patient Sample and Target Plate.
(§7) Shown in Table 6 and Table 7, MIC results for antimicrobial panels 1 and 2 respectively using a master cartridge format and a 384 well patient cartridge (column 3) agrees reliably with that run by standard 96 well AST assay plate (right hand column).

patient sample microbes [2] = conditions: antimicrobial panel 1, MIC range; cited from earlier work
S. aureus 29213 = conditions: MIC range, cited from earlier work
K. pneumoniae 700603 = conditions: MIC range, K. pneumoniae 700603, Gram negative panel; cited from earlier work
E. coli 25922 = conditions: MIC range, E. coli 25922, Gram negative panel; cited from earlier work
[3] = system: clinical isolate of S. aureus; test: Broth microdilution reference method MIC; assay type: cell-based; conditions: Staphylococcus aureus, read-out: MICs obtained from the broth microdilution reference method
Description: The antibiotics shown are vancomycin, daptomycin, ceftaroline and levofloxacin, of which the MICs obtained from the broth microdilution reference method for this strain were 0.5, 0.25, 0.12, and 0.25 μg/ml, respectively. A clinical isolate of S. aureus was used. Data represents the TRF signal in RFUs. Graphs in the top row contain data from 384-well plates. Graphs in the bottom row contain data from 96-well plates.

patient sample microbes [4] = test: AST MIC results for antimicrobial panel 2 (384-well panel from Master Plate vs 96-well panel); assay type: cell-based; conditions: for MICs obtained from panel made from Master Plate: antimicrobial panel 2, 384 well patient cartridge; for MICs obtained from 96-well Antibiotic Panel: antimicrobial panel 2, standard 96 well AST assay plate
Description: as §1, §2, §3, §4, §5, §6, §7

patient sample microbes [5] = conditions: antimicrobial panel 2, MIC range; cited from earlier work
E. faecalis 29212 = conditions: MIC range, cited from earlier work
[6] = S. aureus 29213, Gram negative panel
[7] = S. aureus 29213, Gram positive panel
[8] = E. faecalis 29212, Gram positive panel
[9] = E. faecalis 29212, Gram negative panel

## NCC[C@H](O)C(=O)N[C@@H]1C[C@H](N)[C@@H](O[C@H]2O[C@H](CN)[C@@H](O)[C@H](O)[C@H]2O)[C@H](O)[C@H]1O[C@H]1O[C@H](CO)[C@@H](O)[C@H](N)[C@H]1O [Amikacin]
Patient sample microbes [1]
  MICs obtained from panel made from Master Plate: 4 µg/mL
  MICs obtained from 96-well Antibiotic Panel: 4 µg/mL
Patient sample microbes [2]
  Quality Control Range: 0.5-4
S. aureus 29213; [6]
  CLSI-Defined QC Range: 1 to 4 µg/mL

## CC1(C)S[C@@H]2[C@H](NC(=O)[C@H](N)c3ccc(O)cc3)C(=O)N2[C@H]1C(=O)O [Amoxicillin (alone), Amoxicillin]
K. pneumoniae 700603
  CLSI-Defined QC Range: >128 µg/mL

## CC[C@H]1OC(=O)[C@H](C)[C@@H](O[C@H]2C[C@@](C)(OC)[C@@H](O)[C@H](C)O2)[C@H](C)[C@@H](O[C@@H]2O[C@H](C)C[C@H](N(C)C)[C@H]2O)[C@](C)(O)C[C@@H](C)CN(C)[C@H](C)[C@@H](O)[C@]1(C)O [Azithromycin]
S. aureus 29213; [7]
  CLSI-Defined QC Range: 0.5 to 2 µg/mL

## C[C@H]1[C@H](NC(=O)/C(=N\OC(C)(C)C(=O)O)c2csc(N)n2)C(=O)N1S(=O)(=O)O [Aztreonam]
E. coli 25922
  CLSI-Defined QC Range: 0.06 to 0.25 µg/mL
K. pneumoniae 700603
  CLSI-Defined QC Range: 8 to 64 µg/mL

## Cc1nnc(SCC2=C(C(=O)O)N3C(=O)[C@@H](NC(=O)Cn4cnnn4)[C@H]3SC2)s1 [Cefazolin]
E. coli 25922
  CLSI-Defined QC Range: 1 to 4 µg/mL

## CO/N=C(\C(=O)N[C@@H]1C(=O)N2C(C(=O)[O-])=C(C[N+]3(C)CCCC3)CS[C@H]12)c1csc(N)n1 [Cefepime]
Patient sample microbes [1]
  MICs obtained from panel made from Master Plate: ≤ 0.25 µg/mL
  MICs obtained from 96-well Antibiotic Panel: ≤ 0.03 µg/mL
Patient sample microbes [2]
  Quality Control Range: 0.015-0.12
S. aureus 29213; [6]
  CLSI-Defined QC Range: 1 to 4 µg/mL

## CO/N=C(\C(=O)N[C@@H]1C(=O)N2C(C(=O)O)=C(COC(C)=O)CS[C@H]12)c1csc(N)n1 [Cefotaxime]
S. aureus 29213; [6]
  CLSI-Defined QC Range: 1 to 4 µg/mL

## CCO/N=C(\C(=O)N[C@@H]1C(=O)N2C(C(=O)[O-])=C(Sc3nc(-c4cc[n+](C)cc4)cs3)CS[C@H]12)c1nsc(N)n1 [Ceftaroline]
[3]; clinical isolate of S. aureus
  MIC: 0.12 mg/L (≈ 0.198 µM)
Patient sample microbes [4]
  MICs obtained from panel made from Master Plate: 0.5 µg/mL
  MICs obtained from 96-well Antibiotic Panel: 0.25 µg/mL

## CO/N=C(\C(=O)N[C@@H]1C(=O)N2C(C(=O)O)=C(CSc3nc(=O)c(=O)[nH]n3C)CS[C@H]12)c1csc(N)n1 [Ceftriaxone]
Patient sample microbes [1]
  MICs obtained from panel made from Master Plate: ≤ 0.125 µg/mL
  MICs obtained from 96-well Antibiotic Panel: ≤ 0.12 µg/mL
Patient sample microbes [4]
  MICs obtained from panel made from Master Plate: 2 µg/mL
  MICs obtained from 96-well Antibiotic Panel: 4 µg/mL
Patient sample microbes [2]
  Quality Control Range: 0.03-0.12
S. aureus 29213; [6]
  CLSI-Defined QC Range: 1 to 8 µg/mL
Patient sample microbes [5]
  Quality Control Range: 1-8

## CO/N=C(\C(=O)N[C@@H]1C(=O)N2C(C(=O)O)=C(COC(N)=O)CS[C@H]12)c1ccco1 [Cefuroxime]
E. coli 25922
  CLSI-Defined QC Range: 2 to 8 µg/mL

## CCCCCCCCCC(=O)N[C@@H](Cc1c[nH]c2ccccc12)C(=O)N[C@H](CC(N)=O)C(=O)N[C@@H](CC(=O)O)C(=O)N[C@@H]1C(=O)NCC(=O)N[C@@H](CCCN)C(=O)N[C@@H](CC(=O)O)C(=O)N[C@H](C)C(=O)N[C@@H](CC(=O)O)C(=O)NCC(=O)N[C@H](CO)C(=O)N[C@@H]([C@H](C)CC(=O)O)C(=O)N[C@@H](CC(=O)c2ccccc2N)C(=O)O[C@@H]1C [Daptomycin]
[3]; clinical isolate of S. aureus
  MIC: 0.25 mg/L (≈ 0.154 µM)
E. faecalis 29212; [8]
  CLSI-Defined QC Range: 1 to 4 µg/mL

## Nc1nc(-n2cc(C(=O)O)c(=O)c3cc(F)c(N4CC(O)C4)c(Cl)c32)c(F)cc1F [Delafloxacin]
E. faecalis 29212; [8]
  CLSI-Defined QC Range: 0.016 to 0.12 µg/mL

## CN(C)[C@@H]1C(O)=C(C(N)=O)C(=O)[C@@]2(O)C(O)=C3C(=O)c4c(O)c(NC(=O)CN5CCCC5)cc(F)c4C[C@H]3C[C@@H]12 [Eravacycline]
E. faecalis 29212; [8]
  CLSI-Defined QC Range: 0.016 to 0.06 µg/mL
E. coli 25922
  CLSI-Defined QC Range: 0.03 to 0.12 µg/mL

## C[C@@H](O)[C@H]1C(=O)N2C(C(=O)O)=C(S[C@@H]3CN[C@H](C(=O)Nc4cccc(C(=O)O)c4)C3)[C@H](C)[C@H]12 [Ertapenem]
S. aureus 29213; [6]
  CLSI-Defined QC Range: 0.06 to 0.25 µg/mL

## CC[C@H]1OC(=O)[C@H](C)[C@@H](O[C@H]2C[C@@](C)(OC)[C@@H](O)[C@H](C)O2)[C@H](C)[C@@H](O[C@@H]2O[C@H](C)C[C@H](N(C)C)[C@H]2O)[C@](C)(O)C[C@@H](C)C(=O)[C@H](C)[C@@H](O)[C@]1(C)O [Erythromycin]
E. faecalis 29212; [8]
  CLSI-Defined QC Range: 1 to 4 µg/mL

## C[C@H]1COc2c(N3CCN(C)CC3)c(F)cc3c(=O)c(C(=O)O)cn1c23 [Levofloxacin]
Patient sample microbes [1]
  MICs obtained from panel made from Master Plate: ≤ 0.25 µg/mL
  MICs obtained from 96-well Antibiotic Panel: ≤ 0.06 µg/mL
[3]; clinical isolate of S. aureus
  MIC: 0.25 mg/L (≈ 0.692 µM)
Patient sample microbes [4]
  MICs obtained from panel made from Master Plate: ≤ 0.25 µg/mL
  MICs obtained from 96-well Antibiotic Panel: 0.25 µg/mL

## CC(=O)NC[C@H]1CN(c2ccc(N3CCOCC3)c(F)c2)C(=O)O1 [Linezolid]
Patient sample microbes [4]
  MICs obtained from panel made from Master Plate: 2 µg/mL
  MICs obtained from 96-well Antibiotic Panel: 2 µg/mL
S. aureus 29213; [7]
  CLSI-Defined QC Range: 1 to 4 µg/mL
Patient sample microbes [5]
  Quality Control Range: 1-4

## C[C@@H](O)[C@H]1C(=O)N2C(C(=O)O)=C(S[C@@H]3CN[C@H](C(=O)N(C)C)C3)[C@H](C)[C@H]12 [Meropenem]
E. faecalis 29212; [9]
  CLSI-Defined QC Range: 2 to 8 µg/mL

## Cc1onc(-c2ccccc2)c1C(=O)N[C@@H]1C(=O)N2[C@@H]1SC(C)(C)[C@@H]2C(=O)O [Oxacillin]
Patient sample microbes [4]
  MICs obtained from panel made from Master Plate: 0.5 µg/mL
  MICs obtained from 96-well Antibiotic Panel: 0.5 µg/mL
S. aureus 29213; [7]
  CLSI-Defined QC Range: 0.12 to 0.5 µg/mL
Patient sample microbes [5]
  Quality Control Range: 0.12-0.5

## CO[C@H]1/C=C/O[C@@]2(C)Oc3c(C)c(O)c4c(O)c(c(/C=N/N5CCN(C)CC5)c(O)c4c3C2=O)NC(=O)/C(C)=C\C=C\[C@H](C)[C@H](O)[C@@H](C)[C@@H](O)[C@@H](C)[C@H](OC(C)=O)[C@@H]1C [Rifampin]
E. faecalis 29212; [8]
  CLSI-Defined QC Range: 0.5 to 4 µg/mL
Patient sample microbes [4]
  MICs obtained from panel made from Master Plate: ≤ 0.25 µg/mL
  MICs obtained from 96-well Antibiotic Panel: 0.004 µg/mL
Patient sample microbes [5]
  Quality Control Range: 0.004-0.015

## Cn1nnc(-c2ccc(-c3ccc(N4C[C@H](CO)OC4=O)cc3F)cn2)n1 [Tedizolid]
Patient sample microbes [4]
  MICs obtained from panel made from Master Plate: 0.25 µg/mL
  MICs obtained from 96-well Antibiotic Panel: 0.5 µg/mL
Patient sample microbes [5]
  Quality Control Range: 0.25-1

## NC[C@H]1O[C@H](O[C@H]2[C@H](O)[C@@H](O[C@H]3O[C@H](CO)[C@@H](O)[C@H](N)[C@H]3O)[C@H](N)C[C@@H]2N)[C@H](N)C[C@@H]1O [Tobramycin]
Patient sample microbes [1]
  MICs obtained from panel made from Master Plate: 0.5 µg/mL
  MICs obtained from 96-well Antibiotic Panel: 1 µg/mL
E. faecalis 29212; [9]
  CLSI-Defined QC Range: 8 to 32 µg/mL
Patient sample microbes [2]
  Quality Control Range: 0.25-1

## COc1cc(Cc2cnc(N)nc2N)cc(OC)c1OC [Trimethoprim]
S. aureus 29213; [7]
  CLSI-Defined QC Range: 1 to 4 µg/mL

## CN[C@H](CC(C)C)C(=O)N[C@H]1C(=O)N[C@@H](CC(N)=O)C(=O)N[C@H]2C(=O)N[C@H]3C(=O)N[C@H](C(=O)N[C@H](C(=O)O)c4cc(O)cc(O)c4-c4cc3ccc4O)[C@H](O)c3ccc(c(Cl)c3)Oc3cc2cc(c3O[C@@H]2O[C@H](CO)[C@@H](O)[C@H](O)[C@H]2O[C@H]2C[C@](C)(N)[C@H](O)[C@H](C)O2)Oc2ccc(cc2Cl)[C@H]1O [Vancomycin]
[3]
  MIC: 0.5 mg/L (≈ 0.345 µM)
S. aureus 29213; [7]
  CLSI-Defined QC Range: 0.5 to 2 µg/mL

## Penicillin
S. aureus 29213; [7]
  CLSI-Defined QC Range: 0.25 to 2 µg/mL
